Reference: patent US9580390B2, “Indazole compounds as kinase inhibitors and method of treating cancer with same” (University Health Network, priority 2011, dated 2017)
Where two headings read alike, the source gives them in different places.

Tests used:
human TTK = target: T1, human TTK (Homo sapiens, UniProt P33981); test: TTK inhibition assay (indirect ELISA); format: biochemical; conditions: read-out: TTK IC50 Range
T1 construct: amino terminal GST fusion of full length human TTK; purchased Invitrogen
T1 sequence (P33981 1-857): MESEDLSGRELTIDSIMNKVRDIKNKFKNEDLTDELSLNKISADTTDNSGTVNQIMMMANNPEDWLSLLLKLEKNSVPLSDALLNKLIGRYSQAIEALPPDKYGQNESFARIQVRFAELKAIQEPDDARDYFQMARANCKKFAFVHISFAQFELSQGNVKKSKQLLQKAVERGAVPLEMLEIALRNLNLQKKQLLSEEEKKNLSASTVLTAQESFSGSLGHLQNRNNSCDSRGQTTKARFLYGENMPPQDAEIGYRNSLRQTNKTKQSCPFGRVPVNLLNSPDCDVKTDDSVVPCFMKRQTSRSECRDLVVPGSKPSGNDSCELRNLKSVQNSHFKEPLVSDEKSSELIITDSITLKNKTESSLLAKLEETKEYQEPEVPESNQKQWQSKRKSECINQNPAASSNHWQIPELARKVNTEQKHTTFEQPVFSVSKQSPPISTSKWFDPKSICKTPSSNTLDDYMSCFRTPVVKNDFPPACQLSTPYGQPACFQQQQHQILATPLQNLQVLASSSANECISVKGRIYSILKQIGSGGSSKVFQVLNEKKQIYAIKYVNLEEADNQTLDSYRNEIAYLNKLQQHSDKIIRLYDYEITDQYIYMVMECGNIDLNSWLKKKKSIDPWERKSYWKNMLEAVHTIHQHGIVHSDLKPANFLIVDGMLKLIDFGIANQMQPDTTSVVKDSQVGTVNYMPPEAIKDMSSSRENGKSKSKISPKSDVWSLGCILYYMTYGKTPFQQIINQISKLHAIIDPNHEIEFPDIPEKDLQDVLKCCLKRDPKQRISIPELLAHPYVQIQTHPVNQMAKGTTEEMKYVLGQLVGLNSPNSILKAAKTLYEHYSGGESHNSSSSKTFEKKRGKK

[1] = test system: colon cancer cells (HCT116); test: Cancer cell line growth inhibition (SRB assay); format: cell-based; conditions: Homo sapiens, HCT-116, read-out: Cancer Cell Line GI50 Range HCT116
[2] = test system: ovarian cancer cells (PA-1); test: Cancer cell line growth inhibition (SRB assay); format: cell-based; conditions: Homo sapiens, PA-1; read-out: Cancer Cell Line GI50 Range PA-1
[3] = HCT116 colon cancer cells, SRB assay

Row | SMILES | IC50 (human TTK) | further results
1 | O=C(Nc1ccc2[nH]nc(-c3ccc(N4CCOCC4)nc3)c2c1)C(c1ccsc1)N1CCCC1 (centres unmarked) [Example A52, N-(3-(6-morpholinopyridin-3-yl)-1H-indazol-5-yl)-2-(pyrrolidin-1-yl)-2-(thiophen-3-yl)acetamide] | < 0.1 µM | GI50 [1, 3]: 0.1 to 0.5 µM
2 | Cc1cc(-c2n[nH]c3ccc(NC(=O)C(c4ccsc4)N4CCCC4)cc23)ccc1N1CCOCC1 (centres unmarked) [Example A59, N-(3-(3-methyl-4-morpholinophenyl)-1H-indazol-5-yl)-2-(pyrrolidin-1-yl)-2-(thiophen-3-yl)acetamide] | 0.1 to 0.5 µM | GI50 [1, 3]: > 0.5 µM
3 | CCN(C(=O)Nc1ccc2[nH]nc(-c3ccc(N4CCOCC4)cc3)c2c1)c1ccccc1 [Example A72, 1-ethyl-3-(3-(4-morpholinophenyl)-1H-indazol-5-yl)-1-phenylurea] | > 0.5 µM | –
4 | CN1CCN(c2ccc(-c3n[nH]c4ccc(NC(=O)C(c5ccsc5)N5CCCC5)cc34)cc2)C(=O)C1 (centres unmarked) [Example A94, N-(3-(4-(4-Methyl-2-oxopiperazin-1-yl)phenyl)-1H-indazol-5-yl)-2-(pyrrolidin-1-yl)-2-(thiophen-3-yl)acetamide] | > 0.5 µM | –
5 | O=CN1CCC(Oc2ccc(-c3n[nH]c4ccc(C(=O)N[C@@H](c5ncccc5Cl)C5CC5)cc34)cc2)CC1 [Example A211, (R)-N-((3-chloropyridin-2-yl)(cyclopropyl)methyl)-3-(4-((1-formylpiperidin-4-yl)oxy)phenyl)-1H-indazole-5-carboxamide] | – | GI50 [2]: 0.1 to 0.5 µM; GI50 [1]: 0.1 to 0.5 µM
6 | O=C(NCC1(N2CCC(F)CC2)CCCCC1)c1ccc2[nH]nc(-c3ccc(N4CCOCC4)cc3)c2c1 [Example A456, N-((1-(4-fluoropiperidin-1-yl)cyclohexyl)methyl)-3-(4-morpholinophenyl)-1H-indazole-5-carboxamide] | 0.1 to 0.5 µM | –
7 | O=C(NCC1(N2CCOCC2)CCCOC1)c1ccc2[nH]nc(-c3ccc(N4[C@@H]5CC[C@H]4C[C@H](O)C5)cc3)c2c1 (stereo partly drawn) [Example A516, 3-(4-((1R,3S,5S)-3-hydroxy-8-azabicyclo[3.2.1]octan-8-yl)phenyl)-N-((3-morpholinotetrahydro-2H-pyran-3-yl)methyl)-1H-indazole-5-carboxamide] | < 0.1 µM | –
8 | O=C(NCC1(N2CCOCC2)CCCOC1)c1ccc2[nH]nc(-c3ccc(N4[C@@H]5CC[C@H]4COC5)cc3)c2c1 (stereo partly drawn) [Example A517, 3-(4-((1R,5S)-3-oxa-8-azabicyclo[3.2.1]octan-8-yl)phenyl)-N-((3-morpholinotetrahydro-2H-pyran-3-yl)methyl)-1H-indazole-5-carboxamide] | < 0.1 µM | –
9 | CC(C)C[C@H](NC(=O)c1ccc2[nH]nc(-c3ccc(N4C5CCC4CC(O)C5)cc3)c2c1)c1ccccc1F (stereo partly drawn) [Example A518, N-((S)-1-(2-fluorophenyl)-3-methylbulyl)-3-(4-((1R,3S,5S)-3-hydroxy-8-azabicyclo[3.2.1]octan-8-yl)phenyl)-1H-indazole-5-carboxamide] | < 0.1 µM | –
10 | CC(C)C[C@H](NC(=O)c1ccc2[nH]nc(-c3ccc(N4[C@@H]5CC[C@H]4COC5)cc3)c2c1)c1ccccc1F [Example A519, 3-(4-((1R,5S)-3-oxa-8-azabicyclo[3.2.1]octan-8-yl)phenyl)-N-((S)-1-(2-fluorophenyl)-3-methylbutyl)-1H-indazole-5-carboxamide] | < 0.1 µM | –

Now from value to compound, other results behind:

Row | IC50 (human TTK) | SMILES | further results
11 | 0.1 to 0.5 µM | O=C(Nc1ccc2[nH]nc(-c3ccc(CN4CCOCC4)cc3)c2c1)C1CCCc2ccccc21 (centres unmarked) [Example A23, N-(3-(4-(morpholinomethyl)phenyl)-1H-indazol-5-yl)-1,2,3,4-tetrahydronaphthalene-1-carboxamide] | GI50 [1, 3]: > 0.5 µM
12 | < 0.1 µM | O=C(NC(c1ccccc1)C1CC1)c1ccc2[nH]nc(-c3ccc(N4CCOCC4)nc3)c2c1 (centres unmarked) [Example A54, N-(cyclopropyl(phenyl)methyl)-3-(6-morpholinopyridin-3-yl)-1H-indazole-5-carboxamide] | GI50 [1, 3]: > 0.5 µM
13 | 0.1 to 0.5 µM | CN1CCC(Oc2ccc(-c3n[nH]c4ccc(NC(=O)Nc5ccccc5F)cc34)cc2)CC1 [Example A56, 1-(2-fluorophenyl)-3-(3-(4-((1-methylpiperidin-4-yl)oxy)phenyl)-1H-indazol-5-yl)urea] | GI50 [1, 3]: > 0.5 µM
14 | 0.1 to 0.5 µM | C[C@@H]1C[C@H](Oc2ccc(-c3n[nH]c4ccc(C(=O)NCC5(N6CCOCC6)CCCC5)cc34)cc2)C[C@H](C)O1 [Example A430, (4-(((2R,4R,6S)-2,6-dimethyltetrahydro-2H-pyran-4-yl)oxy)phenyl)-N-((1-morpholinocyclopentyl)methyl)-1H-indazole-5-carboxamide] | –
15 | 0.1 to 0.5 µM | O=C(NCC1(N2CCC(F)(F)CC2)CCCCC1)c1ccc2[nH]nc(-c3ccc(N4CCOCC4)cc3)c2c1 [Example A457, N-((1-(4,4-difluoropiperidin-1-yl)cyclohexyl)methyl)-3-(4-morpholinophenyl)-1H-indazole-5-carboxamide] | –
16 | 0.1 to 0.5 µM | C[C@@H]1CC(CNC(=O)c2ccc3[nH]nc(-c4ccc(OC5CCN(C)CC5)cc4)c3c2)(N2CCOCC2)C[C@H](C)O1 (stereo partly drawn) [Example A475, N-(((2R,6S)-2,6-dimethyl-4-morpholinotetrahydro-2H-pyran-4-yl)methyl)-3-(4-((1-methylpiperidin-4-yl)oxy)phenyl)-1H-indazole-5-carboxamide] | –
17 | 0.1 to 0.5 µM | O=C(NCC1(N2CCOCC2)CCCC1)c1ccc2[nH]nc(-c3ccc(OC4CCOCC4)cc3)c2c1 [Example A477, N-((1-morpholinocyclopentyl)methyl)-3-(4-((tetrahydro-2H-pyran-4-yl)oxy)phenyl)-1H-indazole-5-carboxamide] | –
18 | 0.1 to 0.5 µM | CN1CCC(Oc2ccc(-c3n[nH]c4ccc(C(=O)NCC5(N6CCOCC6)CCC5)cc34)cc2)CC1 [Example A479, 3-(4-((1-methylpiperidin-4-yl)oxy)phenyl)-N-((1-morpholinocyclobutyl)methyl)-1H-indazole-5-carboxamide] | –
19 | 0.1 to 0.5 µM | CN1CCC(Oc2ccc(-c3n[nH]c4ccc(C(=O)NCC5(CN6CCOCC6)CC5)cc34)cc2)CC1 [Example A498, 3-(4-((1-methylpiperidin-4-yl)oxy)phenyl)-N-((1-(morpholinomethyl)cyclopropyl)methyl)-1H-indazole-5-carboxamide] | –
20 | < 0.1 µM | O=C(NCC1(N2CCOCC2)CCCOC1)c1ccc2[nH]nc(-c3ccc(N4CCOCC4)cc3)c2c1 (centres unmarked) [Example A515, 3-(4-morpholinophenyl)-N-((3-morpholinotetrahydro-2H-pyran-3-yl)methyl)-1H-indazole-5-carboxamide] | –
21 | < 0.1 µM | CC(C)(C)C[C@H](NC(=O)c1ccc2[nH]nc(-c3ccc(N4CC(N5CCOCC5)C4)cc3)c2c1)c1ccccc1 [Example A520, (S)-N-(3,3-dimethyl-1-phenylbutyl)-3-(4-(3-morpholinoazetidin-1-yl)phenyl)-1H-indazole-5-carboxamide] | –
22 | < 0.1 µM | CC(C)C[C@H](NC(=O)c1ccc2[nH]nc(-c3ccc(N4CC(N5CCOCC5)C4)cc3)c2c1)c1ccccc1 [Example A521, (S)-N-(3-methyl-1-phenylbutyl)-3-(4-(3-morpholinoazetidin-1-yl)phenyl)-1H-indazole-5-carboxamide] | –
23 | < 0.1 µM | CC(C)[C@H](NC(=O)c1ccc2[nH]nc(-c3ccc(N4CC(N5CCOCC5)C4)cc3)c2c1)c1ncccc1F [Example A522, (S)-N-(1-(3-fluoropyridin-2-yl)-2-methylpropyl)-3-(4-(3-morpholinoazetidin-1-yl)phenyl)-1H-indazole-5-carboxamide] | –
